Source: ChEMBL document CHEMBL1201862, “PubChem BioAssay data set” (2004)
Active and inactive are the calls of the source.

How the values were obtained:
[1] = Luminescence Cell-Based Dose Retest to Confirm Inhibitors of Cancer Stem Cells. [Related pubchem assays (depositor defined):AID2717, AID2721]; type: functional; settings: Homo sapiens
[2] = biological target: T1, Corticotropin-releasing factor receptor 2/Corticotropin-releasing factor-binding protein (Homo sapiens, UniProt P24387+Q13324); assay: Dose Response confirmation of uHTS hits for small molecule antagonists of the CRF-binding protein and CRF-R2 receptor complex.; type: functional; settings: read-out: IC50_Mean
T1 sequence (Q13324 whole entry): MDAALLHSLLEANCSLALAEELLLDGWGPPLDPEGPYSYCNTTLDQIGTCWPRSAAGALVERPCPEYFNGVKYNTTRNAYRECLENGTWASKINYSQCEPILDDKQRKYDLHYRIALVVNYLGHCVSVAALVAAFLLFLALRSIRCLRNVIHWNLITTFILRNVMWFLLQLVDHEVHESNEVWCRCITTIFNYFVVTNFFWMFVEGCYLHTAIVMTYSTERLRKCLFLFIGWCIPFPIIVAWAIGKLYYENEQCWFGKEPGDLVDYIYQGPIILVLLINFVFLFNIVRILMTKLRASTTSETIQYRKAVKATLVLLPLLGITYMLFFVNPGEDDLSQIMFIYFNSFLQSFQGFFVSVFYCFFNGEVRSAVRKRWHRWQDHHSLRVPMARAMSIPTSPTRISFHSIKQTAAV
T1 sequence (P24387 whole entry): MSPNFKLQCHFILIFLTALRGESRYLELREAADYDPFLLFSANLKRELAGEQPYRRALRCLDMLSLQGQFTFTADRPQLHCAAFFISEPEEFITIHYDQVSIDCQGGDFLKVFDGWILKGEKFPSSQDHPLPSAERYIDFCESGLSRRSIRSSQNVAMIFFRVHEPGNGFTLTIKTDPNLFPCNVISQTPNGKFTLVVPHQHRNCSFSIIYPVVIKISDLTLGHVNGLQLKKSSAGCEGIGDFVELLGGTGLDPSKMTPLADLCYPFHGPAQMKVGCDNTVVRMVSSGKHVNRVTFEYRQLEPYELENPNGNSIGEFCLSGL

[3] = biological target: T1, Corticotropin-releasing factor receptor 2/Corticotropin-releasing factor-binding protein; assay: activators of CRF receptor 2 with binding protein – uHTS hits, confirmation (AID 602473); type: functional; settings: read-out: EC50_Mean
[4] = blockers of CRF-binding protein–CRF-R2 complex – cell-based, uHTS hits, 384-well, dose response (AID 651639); type: functional, Homo sapiens; settings: read-out: IC50_Mean
[5] = biological target: Induced myeloid leukemia cell differentiation protein Mcl-1 (Homo sapiens, UniProt Q07820); type: functional
Chain of Induced myeloid leukemia cell differentiation protein Mcl-1 (Q07820 whole entry): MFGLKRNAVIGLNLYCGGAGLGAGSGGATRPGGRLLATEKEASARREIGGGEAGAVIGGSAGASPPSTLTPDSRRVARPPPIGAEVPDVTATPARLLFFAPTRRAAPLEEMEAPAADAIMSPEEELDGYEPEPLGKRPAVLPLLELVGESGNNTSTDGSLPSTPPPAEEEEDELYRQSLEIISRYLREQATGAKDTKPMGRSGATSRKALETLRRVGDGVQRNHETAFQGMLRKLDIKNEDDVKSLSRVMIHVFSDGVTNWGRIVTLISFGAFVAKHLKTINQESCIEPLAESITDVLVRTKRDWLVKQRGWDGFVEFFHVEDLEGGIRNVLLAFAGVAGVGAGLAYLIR

[6] = biological target: T2, Sentrin-specific protease 8 (Homo sapiens, UniProt Q96LD8); type: functional
T2 sequence (Q96LD8 whole entry): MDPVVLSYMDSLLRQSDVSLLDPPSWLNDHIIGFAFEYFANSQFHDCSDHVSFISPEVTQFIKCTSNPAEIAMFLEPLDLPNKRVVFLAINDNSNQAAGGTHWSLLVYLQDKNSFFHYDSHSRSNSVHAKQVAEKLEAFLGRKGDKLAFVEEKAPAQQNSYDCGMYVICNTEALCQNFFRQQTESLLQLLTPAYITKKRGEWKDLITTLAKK

[7] = biological target: T2, Sentrin-specific protease 8; type: functional; remark: listed apart in the source
[8] = biological target: T3, Low molecular weight phosphotyrosine protein phosphatase (Homo sapiens, UniProt P24666); type: functional; settings: read-out: IC50_Mean;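 also: Dose-response confirmation assay measuring inhibition of LMPTP enzyme activity by fluorescence intensity read-out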
T3 sequence (P24666 whole entry): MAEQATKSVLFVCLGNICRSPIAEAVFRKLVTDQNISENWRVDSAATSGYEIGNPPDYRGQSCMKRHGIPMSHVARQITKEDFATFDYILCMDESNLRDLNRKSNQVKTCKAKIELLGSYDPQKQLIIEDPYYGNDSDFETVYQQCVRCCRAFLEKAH

Beta-lactamase [9] = biological target: Beta-lactamase (Pseudomonas aeruginosa, UniProt Q79MP6);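 also: biochemical dose-response test of metallo-beta-lactamase enzyme inhibition, read out by epi-absorbance; purified recombinant IMP-1 metallo-beta-lactamase with nitrocefin as substrate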
Chain of Beta-lactamase (Pseudomonas aeruginosa, UniProt Q79MP6) (Q79MP6 whole entry): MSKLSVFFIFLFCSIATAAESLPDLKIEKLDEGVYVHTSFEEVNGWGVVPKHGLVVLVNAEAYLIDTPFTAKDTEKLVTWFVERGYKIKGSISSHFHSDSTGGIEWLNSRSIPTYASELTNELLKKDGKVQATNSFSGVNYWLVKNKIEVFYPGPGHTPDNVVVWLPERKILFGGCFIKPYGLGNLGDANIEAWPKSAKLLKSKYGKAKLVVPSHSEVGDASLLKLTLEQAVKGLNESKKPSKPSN

Beta-lactamase [10] = biological target: Beta-lactamase (Salmonella choleraesuis (strain SC-B67), UniProt Q5J463)
Chain of Beta-lactamase (Salmonella choleraesuis (strain SC-B67), UniProt Q5J463) (Q5J463 whole entry): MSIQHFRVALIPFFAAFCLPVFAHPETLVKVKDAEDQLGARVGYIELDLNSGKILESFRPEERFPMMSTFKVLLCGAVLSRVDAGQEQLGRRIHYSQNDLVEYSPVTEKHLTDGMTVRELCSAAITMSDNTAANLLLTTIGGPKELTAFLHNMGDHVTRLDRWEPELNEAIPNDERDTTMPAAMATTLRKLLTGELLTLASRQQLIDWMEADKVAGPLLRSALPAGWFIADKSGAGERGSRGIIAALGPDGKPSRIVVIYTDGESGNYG

[11] = viability loss in HeLa cells – cytotoxicity control for MgcRacGAP inhibitor project, dose response (AID 624300); type: functional
[12] = biological target: T4, Rac GTPase-activating protein 1 (Homo sapiens, UniProt Q9H0H5); assay: blockers of MgcRacGAP-driven Rac1 GTP hydrolysis – biochemical, ADP Hunter fluorescence, primary and confirmatory, confirmation (AID 624330); type: functional
T4 sequence (Q9H0H5 whole entry): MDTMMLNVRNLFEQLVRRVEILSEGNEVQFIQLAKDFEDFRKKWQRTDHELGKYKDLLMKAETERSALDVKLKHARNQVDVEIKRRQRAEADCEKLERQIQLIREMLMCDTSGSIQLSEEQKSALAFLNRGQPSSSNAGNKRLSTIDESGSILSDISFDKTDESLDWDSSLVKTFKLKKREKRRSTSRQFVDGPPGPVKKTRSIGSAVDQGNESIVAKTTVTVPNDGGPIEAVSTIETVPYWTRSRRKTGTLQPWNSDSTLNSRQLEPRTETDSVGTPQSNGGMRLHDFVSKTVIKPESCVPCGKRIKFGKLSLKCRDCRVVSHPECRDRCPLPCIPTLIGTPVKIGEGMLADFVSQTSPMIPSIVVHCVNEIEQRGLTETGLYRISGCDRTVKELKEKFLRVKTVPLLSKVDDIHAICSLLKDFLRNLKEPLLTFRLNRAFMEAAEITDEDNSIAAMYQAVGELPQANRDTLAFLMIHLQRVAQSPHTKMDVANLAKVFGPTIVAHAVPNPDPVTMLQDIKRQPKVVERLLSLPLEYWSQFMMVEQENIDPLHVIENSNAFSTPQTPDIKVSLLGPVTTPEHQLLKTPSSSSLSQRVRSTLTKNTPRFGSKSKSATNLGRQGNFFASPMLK
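For AC50 in this document: cells exposed to compound for roughly 70 hours or longer before luminescence read.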

N#Cc1c(O)nc(SCc2cccc(Cl)c2)nc1-c1ccccc1
AC50 [1]: 4.86 µM (active)
IC50 [2]: < 0.368 µM (active)
EC50 [3]: > 53 µM (inactive)
IC50 [4]: > 20 µM (inactive)

O=c1c([N+](=O)[O-])c(NC2CCCCC2)c2ccccc2n1-c1ccccc1
IC50 [2]: 4.33 µM (active)
EC50 [3]: > 53 µM (inactive)
IC50 [4]: > 20 µM (inactive)

Nc1ccc(Cc2ccc(N)c(O)c2)cc1O
IC50 [5]: > 54 µM (active)
IC50 [6]: > 100 µM (inactive)
IC50 [7]: 27 µM (active)
IC50 [8]: 26.7 µM (inactive)

O=P(O)(O)c1cc(-c2ccccc2)oc1-c1ccccc1
IC50 (Beta-lactamase [9]): 22.5 µM (inactive)
IC50 (Beta-lactamase [10]): > 59.6 µM (inactive)

C=CCc1c(C)nc(-c2ccccc2)nc1Nc1ccc(O)cc1
CC50 [11]: 100 µM (active)
IC50 [12]: 38.1 µM (active)
